Laboratory results taken from US20220235064A1 (WELLMARKER BIO CO., LTD., priority 2019, published 2022).

The molecules below were run against T1, RON tyrosine kinase (Homo sapiens, UniProt Q04912) (assay: Enzyme inhibitory activity against RON tyrosine kinase (TR-FRET)). Conditions: RON (Carna Bioscience).
T1 construct: purchased Carna Bioscience
T1 sequence (Q04912 25-1400): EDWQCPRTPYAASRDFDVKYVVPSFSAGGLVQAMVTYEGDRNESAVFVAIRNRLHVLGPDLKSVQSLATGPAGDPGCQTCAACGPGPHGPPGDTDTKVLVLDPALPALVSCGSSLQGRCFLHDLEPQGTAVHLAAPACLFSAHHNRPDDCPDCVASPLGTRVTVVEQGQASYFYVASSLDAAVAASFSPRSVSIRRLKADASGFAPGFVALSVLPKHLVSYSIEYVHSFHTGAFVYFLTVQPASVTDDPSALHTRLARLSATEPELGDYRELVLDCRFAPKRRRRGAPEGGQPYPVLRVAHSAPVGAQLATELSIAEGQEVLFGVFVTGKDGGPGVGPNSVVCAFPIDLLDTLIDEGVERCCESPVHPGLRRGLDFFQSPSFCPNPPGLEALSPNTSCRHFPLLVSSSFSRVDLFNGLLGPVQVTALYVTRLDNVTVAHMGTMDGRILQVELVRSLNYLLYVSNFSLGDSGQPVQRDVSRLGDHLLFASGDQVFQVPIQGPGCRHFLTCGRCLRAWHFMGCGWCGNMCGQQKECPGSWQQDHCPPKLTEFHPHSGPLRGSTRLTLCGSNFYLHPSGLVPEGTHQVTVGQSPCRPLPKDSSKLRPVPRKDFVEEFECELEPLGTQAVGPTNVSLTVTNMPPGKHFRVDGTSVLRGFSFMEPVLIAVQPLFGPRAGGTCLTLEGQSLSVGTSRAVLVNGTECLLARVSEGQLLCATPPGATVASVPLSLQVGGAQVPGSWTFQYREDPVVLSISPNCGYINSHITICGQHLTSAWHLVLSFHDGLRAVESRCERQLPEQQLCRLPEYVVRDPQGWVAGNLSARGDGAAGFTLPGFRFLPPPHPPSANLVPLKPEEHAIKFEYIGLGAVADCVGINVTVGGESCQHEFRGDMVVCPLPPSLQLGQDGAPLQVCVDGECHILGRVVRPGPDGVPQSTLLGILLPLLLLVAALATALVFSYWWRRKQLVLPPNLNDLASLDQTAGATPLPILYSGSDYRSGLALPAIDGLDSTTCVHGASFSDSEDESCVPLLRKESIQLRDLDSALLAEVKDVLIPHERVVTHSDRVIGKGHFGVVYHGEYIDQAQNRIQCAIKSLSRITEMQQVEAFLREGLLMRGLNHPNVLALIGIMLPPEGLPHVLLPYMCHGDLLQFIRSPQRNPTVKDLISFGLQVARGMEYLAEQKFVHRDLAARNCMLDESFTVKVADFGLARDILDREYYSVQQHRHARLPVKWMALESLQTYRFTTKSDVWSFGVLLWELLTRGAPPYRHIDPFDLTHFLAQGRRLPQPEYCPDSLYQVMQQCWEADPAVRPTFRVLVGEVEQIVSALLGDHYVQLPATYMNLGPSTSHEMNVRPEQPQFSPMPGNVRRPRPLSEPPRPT
Type: biochemical
Description: Experimental Example 1: Measurement of Enzyme Inhibitory Activity Against RON Tyrosine Kinase
To measure enzyme inhibitory activity of the example compounds against RON, IC50 values of the compounds were measured using fluorescence resonance energy transfer (FRET).
Specifically, first, RON (Carna Bioscience) was diluted in a kinase assay buffer (50 mM HEPES pH 7.5, 1 mM EGTA, 10 mM MgCl2, 2 mM DTT, and 0.01% Tween-20) to be at a concentration (0.4 nM) that is twice the final reaction concentration. The dilute was added to a 384-well-plate at 5 μl per well. Each of the example compounds was prepared at a concentration of 1 mM in 100% DMSO and diluted 8 times in a stepwise manner through 10-fold dilution. Each compound was diluted in a kinase assay buffer to be at a concentration that is 4 times the final reaction concentration. The dilute was added to a 384-well-plate at 2.5 μl per well, and incubation was performed at room temperature for 15 minutes.
Thereafter, an ATP solution (Sigma Aldrich) prepared at a concentration of 0.25 M was diluted in a kinase assay buffer to be at a concentration (60 μM) that is 4 times the final reaction concentration. Dilution of a tyrosine peptide substrate (Perkin-Elmer) was performed therein to be at a concentration (400 nM) that is 4 times the final reaction concentration. The dilute was added to a 384-well-plate at 2.5 µl per well. Reaction was allowed to proceed for 60 minutes by incubating the 384-well-plate at room temperature. Thereafter, EDTA (Sigma Aldrich) was diluted in a TR-FRET detection buffer (Perkin-Elmer) to be at a concentration (20 mM) that is twice the final reaction concentration. Dilution of a Europium-containing phosphotyrosine antibody (Perkin-Elmer) was performed in the diluted EDTA solution to be at a concentration (4 nM) that is twice the final reaction concentration, so that a stop solution for RON reaction was prepared.
The stop solution was added to the 384-well-plate at 10 μl per well to quench the reaction, and incubation was performed at room temperature for 60 minutes. Then, the 384-well-plate was read on a Victor X5 (Perkin-Elmer) plate reader. Here, the excitation wavelength was 340 nm, and the emission wavelengths were 620 nm and 665 nm. An IC50 value of the compound was derived using GraphPad Prism 5 program, in which the IC50 was derived by expressing emission energy at the wavelength of 665 nm as a function of the compound concentration.
Molecule `O=C(Nc1ccc(Oc2ccnc3cc(-c4ccc(CN5CCOCC5)cn4)sc23)c(F)c1)c1c2c(cn(-c3ccc(F)cc3)c1=O)CCC2` [Example 7] has an IC50 of 0.0349 µM.
`COc1cc2nccc(Oc3ccc(NC(=O)c4c5c(cn(-c6ccc(C(F)(F)F)cc6)c4=O)CCO5)cc3F)c2cc1OC` [Example 42, N-(4-((6,7-Dimethoxyquinolin-4-yl)oxy)-3-fluorophenyl)-6-oxo-5-(4-(trifluoromethyl)phenyl)-2,3,5,6-tetrahydrofuro[3,2-c]pyridine-7-carboxamide] gave an IC50 of 0.03 µM.
`COc1cc2nccc(Oc3ccc(NC(=O)c4c5c(cn(-c6cccc(F)c6)c4=O)CCO5)cc3F)c2cc1OC` [Example 43, N-(4-((6,7-Dimethoxyquinolin-4-yl)oxy)-3-fluorophenyl)-6-oxo-5-(3-fluorophenyl)-2,3,5,6-tetrahydrofuro[3,2-c]pyridine-7-carboxamide] was tested, and the IC50 was 0.00513 µM.
Molecule `NC(=O)c1nccc(Oc2ccc(NC(=O)c3c4c(cn(-c5ccc(F)cc5)c3=O)CCO4)cc2F)c1Cl` [Example 54, N-(4-((2-Carbamoyl-3-chloropyridin-4-yl)oxy)-3-fluorophenyl)-5-(4-fluorophenyl)-6-oxo-2,3,5,6-tetrahydrofuro[3,2-c]pyridine-7-carboxamide] has an IC50 greater than 1 µM.
With `Nc1nccc(Oc2ccc(NC(=O)c3c4c(cn(-c5ccc(F)cc5)c3=O)CCO4)cc2F)c1Cl` [Example 55, N-(4-((2-Amino-3-chloropyridin-4-yl)oxy)-3-fluorophenyl)-5-(4-fluorophenyl)-6-oxo-2,3,5,6-tetrahydrofuro[3,2-c]pyridine-7-carboxamide] the IC50 was 0.00224 µM.
With `Nc1cc(Oc2ccc(NC(=O)c3c4c(cn(-c5ccc(F)cc5)c3=O)CCO4)cc2F)ccn1` [Example 56, N-(4-((2-Aminopyridin-4-yl)oxy)-3-fluorophenyl)-5-(4-fluorophenyl)-6-oxo-2,3,5,6-tetrahydrofuro[3,2-c]pyridine-7-carboxamide] the IC50 was 0.0119 µM.
In the case of `Nc1nccc(Oc2ccc(NC(=O)c3c4c(cn(-c5ccc(F)cc5)c3=O)CCO4)cc2F)n1` [Example 57, N-(4-((2-Aminopyrimidin-4-yl)oxy)-3-fluorophenyl)-5-(4-fluorophenyl)-6-oxo-2,3,5,6-tetrahydrofuro[3,2-c]pyridine-7-carboxamide], the IC50 is reported as 0.0182 µM.
For `Nc1cc(Oc2ccc(NC(=O)c3c4c(cn(-c5ccc(F)cc5)c3=O)CCO4)cc2F)ncn1` [Example 58, N-(4-((6-Aminopyrimidin-4-yl)oxy)-3-fluorophenyl)-5-(4-fluorophenyl)-6-oxo-2,3,5,6-tetrahydrofuro[3,2-c]pyridine-7-carboxamide], the IC50 was 0.025 µM.
In the case of `O=C(Nc1ccc(Oc2cc(NC3CCOCC3)ncn2)c(F)c1)c1c2c(cn(-c3ccc(F)cc3)c1=O)CCO2` [Example 59], the IC50 is reported as 0.00224 µM.
`O=C(Nc1ccc(Oc2ccnc(NC3CCOCC3)c2)c(F)c1)c1c2c(cn(-c3ccc(F)cc3)c1=O)CCO2` [Example 60, N-(3-Fluoro-4-((2-((tetrahydro-2H-pyran-4-yl)amino)pyridin-4-yl)oxy)phenyl)-5-(4-fluorophenyl)-6-oxo-2,3,5,6-tetrahydrofuro[3,2-c]pyridine-7-carboxamide] showed an IC50 of 0.0131 µM.
`CN1CCC(Nc2cc(Oc3ccc(NC(=O)c4c5c(cn(-c6ccc(F)cc6)c4=O)CCO5)cc3F)ncn2)CC1` [Example 61, N-(3-Fluoro-4-((6-((1-methylpiperidin-4-yl)amino)pyrimidin-4-yl)oxy)phenyl)-5-(4-fluorophenyl)-6-oxo-2,3,5,6-tetrahydrofuro[3,2-c]pyridine-7-carboxamide] showed an IC50 of 0.156 µM.
`O=C(Nc1ccc(Oc2ccnc3[nH]ccc23)c(F)c1)c1c2c(cn(-c3ccc(F)cc3)c1=O)CCO2` [Example 65, N-(4-((1H-pyrrolo[2,3-b]pyridin-4-yl)oxy)-3-fluorophenyl)-5-(4-fluorophenyl)-6-oxo-2,3,5,6-tetrahydrofuro[3,2-c]pyridine-7-carboxamide] was tested, and the IC50 was 0.00172 µM.
`O=C(Nc1ccc(Oc2ccnc3[nH]cnc23)c(F)c1)c1c2c(cn(-c3ccc(F)cc3)c1=O)CCO2` [Example 66, N-(4-((3H-imidazo[4,5-b]pyridin-7-yl)oxy)-3-fluorophenyl)-5-(4-fluorophenyl)-6-oxo-2,3,5,6-tetrahydrofuro[3,2-c]pyridine-7-carboxamide] was tested, and the IC50 was 0.00863 µM.
`Cc1nc2c(Oc3ccc(NC(=O)c4c5c(cn(-c6ccc(F)cc6)c4=O)CCO5)cc3F)ccnc2[nH]1` [Example 67, N-(3-Fluoro-4-((2-methyl-3H-imidazo[4,5-b]pyridin-7-yl)oxy)phenyl)-5-(4-fluorophenyl)-6-oxo-2,3,5,6-tetrahydrofuro[3,2-c]pyridine-7-carboxamide] showed an IC50 of 0.015 µM.
`O=C(Nc1ccc(Oc2ccnc3[nH]ncc23)c(F)c1)c1c2c(cn(-c3ccc(F)cc3)c1=O)CCO2` [Example 68, N-(4-((1H-pyrazolo[3,4-b]pyridin-4-yl)oxy)-3-fluorophenyl)-5-(4-fluorophenyl)-6-oxo-2,3,5,6-tetrahydrofuro[3,2-c]pyridine-7-carboxamide] gave an IC50 of 0.00157 µM.
Molecule `O=C(Nc1ccc(Oc2ccnc3ccoc23)c(F)c1)c1c2c(cn(-c3ccc(F)cc3)c1=O)CCO2` [Example 69, N-(3-Fluoro-4-((furo[3,2-b]pyridin-7-yl)oxy)phenyl)-5-(4-fluorophenyl)-6-oxo-2,3,5,6-tetrahydrofuro[3,2-c]pyridine-7-carboxamide] has an IC50 of 0.00329 µM.
`Cc1cc2c(Oc3ccc(NC(=O)c4c5c(cn(-c6ccc(F)cc6)c4=O)CCO5)cc3F)ccnc2[nH]1` [Example 70, N-(3-Fluoro-4-((2-methyl-1H-pyrrolo[2,3-b]pyridin-4-yl)oxy)-3-fluorophenyl)-5-(4-fluorophenyl)-6-oxo-2,3,5,6-tetrahydrofuro[3,2-c]pyridine-7-carboxamide] was tested, and the IC50 was 0.00366 µM.
With `O=C(Nc1ccc(Oc2ncnc3[nH]cnc23)c(F)c1)c1c2c(cn(-c3ccc(F)cc3)c1=O)CCO2` [Example 72, N-(4-((9H-purin-6-yl)oxy)-3-fluorophenyl)-5-(4-fluorophenyl)-6-oxo-2,3,5,6-tetrahydrofuro[3,2-c]pyridine-7-carboxamide] the IC50 was 0.0462 µM.
For `O=C(Nc1ccc(Oc2ncnc3c2CCN3)c(F)c1)c1c2c(cn(-c3ccc(F)cc3)c1=O)CCO2` [Example 74, N-(4-((6,7-Dihydro-5H-pyrrolo[2,3-d]pyrimidin-4-yl)oxy)-3-fluorophenyl)-5-(4-fluorophenyl)-6-oxo-2,3,5,6-tetrahydrofuro[3,2-c]pyridine-7-carboxamide], the IC50 was 0.00975 µM.
In the case of `O=C(Nc1ccc(Oc2ccnc3ccnn23)c(F)c1)c1c2c(cn(-c3ccc(F)cc3)c1=O)CCO2` [Example 75, N-(3-Fluoro-4-(pyrazolo[1,5-a]pyrimidin-7-yloxy)phenyl)-5-(4-fluorophenyl)-6-oxo-2,3,5,6-tetrahydro[3,2-c]pyridine-7-carboxamide], the IC50 is reported as 2.8 µM.
Molecule `O=C(Nc1ccc(Oc2ccnc3cc(OCCN4CCOCC4)ccc23)c(F)c1)c1c2c(cn(-c3ccc(F)cc3)c1=O)CCO2` [Example 157, N-(3-Fluoro-4-((7-(2-morpholinylethoxy)quinolin-4-yl)oxy)phenyl)-5-(4-fluorophenyl)-6-oxo-2,3,5,6-tetrahydrofuro[3,2-c]pyridine-7-carboxamide] has an IC50 of 0.00132 µM.
Work on `O=C(Nc1ccc(Oc2ccnc3cc(OCCCN4CCOCC4)ccc23)c(F)c1)c1c2c(cn(-c3ccc(F)cc3)c1=O)CCC2` [Example 159, N-(3-Fluoro-4-((7-(3-morpholinopropoxy)quinolin-4-yl)oxy)phenyl)-2-(4-fluorophenyl)-3-oxo-3,5,6,7-tetrahydro-2H-cyclopenta[c]pyridine-4-carboxamide] yielded an IC50 of 0.0119 µM.
